Several values for one entry are separate records, joined by “and”; a condition that tells them apart may be missing. Identical values can stand only once. Inconclusive results and toxic doses are left out.
System: BDF1 mice, P388 leukemia ip, median survival T/C
Assay: NCI In Vivo Anticancer Drug Screen. Data for tumor model P388 Leukemia (intraperitoneal) in B6D2F1 (BDF1) mice
Conditions: endpoint: median survival time, higher = longer survival
Method in brief: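 Steps: implant the tumour, treat one group with compound and another with vehicle, record survival, then divide treated by control.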

[1] = dose: 100.0 mg/kg/injection, schedule: Q01DX009 (ip), vehicle: saline
[2] = dose: 100.0 mg/kg/injection, schedule: Q04DX003 (ip), vehicle: saline
[3] = dose: 200.0 mg/kg/injection, schedule: Q01DX009 (ip), vehicle: saline
[4] = dose: 200.0 mg/kg/injection, schedule: Q04DX003 (ip), vehicle: saline
[5] = dose: 400.0 mg/kg/injection, schedule: Q01DX009 (ip), vehicle: saline
[6] = dose: 400.0 mg/kg/injection, schedule: Q04DX003 (ip), vehicle: saline
[7] = dose: 50.0 mg/kg/injection, schedule: Q04DX003 (ip), vehicle: saline
[8] = dose: 100.0 mg/kg/injection, schedule: Q01DX009 (ip), vehicle: saline with Tween-80
[9] = dose: 400.0 mg/kg/injection, schedule: Q01DX009 (ip), vehicle: saline with Tween-80
[10] = dose: 50.0 mg/kg/injection, schedule: Q01DX009 (ip), vehicle: saline
[11] = dose: 100.0 mg/kg/injection, schedule: Q01DX009 (ip), vehicle: Klucel (hydroxypropylcellulose) (HPC)
[12] = dose: 100.0 mg/kg/injection, schedule: Q04DX003 (ip), vehicle: Klucel (hydroxypropylcellulose) (HPC)
[13] = dose: 200.0 mg/kg/injection, schedule: Q01DX009 (ip), vehicle: Klucel (hydroxypropylcellulose) (HPC)
[14] = dose: 200.0 mg/kg/injection, schedule: Q04DX003 (ip), vehicle: Klucel (hydroxypropylcellulose) (HPC)
[15] = dose: 100.0 mg/kg/injection, schedule: Q04DX003 (ip), vehicle: saline sonified
[16] = dose: 200.0 mg/kg/injection, schedule: Q04DX003 (ip), vehicle: saline sonified

In the case of `CC1CC[N-]CC1.CC1CC[N-]CC1.CC1CC[N-]CC1.CC1CC[N-]CC1.O=C([O-])C(=O)[O-].O=C([O-])C(=O)[O-].[Nb+5].[O-][O-].[O-][O-].[Pt+4]`, the T/C (dose: 0.39 mg/kg/injection, schedule: Q01DX009 (ip), vehicle: saline) is reported as 106 % of control, the T/C (dose: 0.78 mg/kg/injection, schedule: Q01DX009 (ip), vehicle: saline) is reported as 102 % of control and the T/C (dose: 1.56 mg/kg/injection, schedule: Q01DX009 (ip), vehicle: saline) is reported as 115 % of control. For the same molecule, the T/C (dose: 3.12 mg/kg/injection, schedule: Q01DX009 (ip), vehicle: saline) was 102 % of control.

`NC(=O)NCCNC(N)=O` was tested, and the T/C [1] was 95 % of control, the T/C [2] was 112 % of control and the T/C [3] was 95 % of control. The T/C [4] was 95 % of control, the T/C [5] was 91 % of control and the T/C [6] was 112 % of control.

For `COc1cc2c(cc1OC)-c1c(C)c3ccc(OC)c(NCCN)c3c[n+]1CC2`, the T/C (dose: 3.12 mg/kg/injection, schedule: Q01DX005 (ip), vehicle: water) was 100 % of control, the T/C (dose: 3.13 mg/kg/injection, schedule: Q04DX003 (ip), vehicle: water) was 101 % of control and the T/C (dose: 6.25 mg/kg/injection, schedule: Q01DX005 (ip), vehicle: water) was 97 % of control. The T/C (dose: 6.25 mg/kg/injection, schedule: Q04DX003 (ip), vehicle: water) was 108 % of control, the T/C (dose: 12.5 mg/kg/injection, schedule: Q01DX005 (ip), vehicle: water) was 100 % of control and the T/C (dose: 12.5 mg/kg/injection, schedule: Q04DX003 (ip), vehicle: water) was 110 % of control. For the same molecule, the T/C (dose: 25.0 mg/kg/injection, schedule: Q01DX005 (ip), vehicle: water) was 98 % of control and the T/C (dose: 25.0 mg/kg/injection, schedule: Q04DX003 (ip), vehicle: water) was 98 % of control and 120 % of control.

In the case of `COC(OC)C12CC(OC(=O)N1)C(C)CO2` (centres undefined), the T/C [7] is reported as 98 % of control, the T/C [2] is reported as 106 % of control and the T/C [4] is reported as 96 % of control.

`CCN(CC)S(=O)(=O)c1cccc(C(O)CC(O)(C(F)(F)F)C(F)(F)F)c1` (centres undefined) was tested, and the T/C (dose: 100.0 mg/kg/injection, schedule: Q04DX003 (ip), vehicle: other) was 95 % of control, the T/C (dose: 200.0 mg/kg/injection, schedule: Q04DX003 (ip), vehicle: other) was 86 % of control and the T/C (dose: 400.0 mg/kg/injection, schedule: Q04DX003 (ip), vehicle: other) was 90 % of control.

With `Cc1cc(NC(=O)Nc2cccc(C3=NCCN3)c2)ccc1NC(=O)Nc1cccc(C2=NCCN2)c1` the T/C [8] was 118 % of control and the T/C [9] was 190 % of control.

With `CN=S(=O)(OCCN(C)CCOS(=O)(=NC)c1ccc(C)cc1)c1ccc(C)cc1` (centres undefined) the T/C (dose: 50.0 mg/kg/injection, schedule: Q01DX009 (ip), vehicle: saline + alcohol) was 112 % of control, the T/C (dose: 100.0 mg/kg/injection, schedule: Q01DX009 (ip), vehicle: saline + alcohol) was 103 % of control and the T/C (dose: 200.0 mg/kg/injection, schedule: Q01DX009 (ip), vehicle: saline + alcohol) was 116 % of control.

For `C=CCOP1(=O)OCC2OC(n3cnc4c(N)ncnc43)C(O)C2O1` (centres undefined), the T/C [1] was 88 % of control, the T/C [3] was 100 % of control and the T/C [5] was 88 % of control.

With `COc1cccc2c1C13CC(C)CC(C2)C1CCC(=O)N3` (centres undefined) the T/C (dose: 75.0 mg/kg/injection, schedule: Q04DX003 (ip), vehicle: saline) was 100 % of control, the T/C (dose: 150.0 mg/kg/injection, schedule: Q04DX003 (ip), vehicle: saline) was 105 % of control and the T/C (dose: 300.0 mg/kg/injection, schedule: Q04DX003 (ip), vehicle: saline) was 116 % of control.

In the case of `CC1=CP(=O)(O)CC1`, the T/C [10] is reported as 95 % of control and the T/C [1] is reported as 95 % of control.

For `CCCCCCCCNC12CC3CC(CC(C3)C1)C2`, the T/C (dose: 6.25 mg/kg/injection, schedule: Q04DX003 (ip), vehicle: saline) was 104 % of control, the T/C (dose: 12.5 mg/kg/injection, schedule: Q04DX003 (ip), vehicle: saline) was 108 % of control and the T/C (dose: 25.0 mg/kg/injection, schedule: Q04DX003 (ip), vehicle: saline) was 116 % of control. The T/C [7] was 100 % of control and the T/C [2] was 108 % of control.

With `CC(C)(CCC(C)(C)NCCC#N)NCCC#N` the T/C [10] was 97 % of control and 104 % of control, the T/C [1] was 101 % of control and the T/C [2] was 98 % of control. For the same molecule, the T/C [3] was 109 % of control and 119 % of control, the T/C [4] was 109 % of control and the T/C [5] was 107 % of control. For the same molecule, the T/C [6] was 114 % of control.

In the case of `COc1ccc2c(c1C)CCC1(CO)C(C(C)=O)=CCC21` (centres undefined), the T/C [11] is reported as 109 % of control, the T/C [12] is reported as 100 % of control and the T/C [13] is reported as 95 % of control. The T/C [14] was 100 % of control, the T/C (dose: 400.0 mg/kg/injection, schedule: Q01DX009 (ip), vehicle: Klucel (hydroxypropylcellulose) (HPC)) was 100 % of control and the T/C (dose: 400.0 mg/kg/injection, schedule: Q04DX003 (ip), vehicle: Klucel (hydroxypropylcellulose) (HPC)) was 100 % of control.

In the case of `O=[N+]([O-])c1cc(C(F)(F)F)ccc1/C=C/c1ccccc1Br`, the T/C (dose: 75.0 mg/kg/injection, schedule: Q04DX003 (ip), vehicle: saline with Tween-80) is reported as 86 % of control, the T/C (dose: 150.0 mg/kg/injection, schedule: Q04DX003 (ip), vehicle: saline with Tween-80) is reported as 90 % of control and the T/C (dose: 300.0 mg/kg/injection, schedule: Q04DX003 (ip), vehicle: saline with Tween-80) is reported as 100 % of control.

`CCC[CH2][Sn]1([CH2]CCC)[S]CC[N]1S(=O)(=O)c1ccc(C)cc1` was tested, and the T/C (dose: 3.0 mg/kg/injection, schedule: Q01DX009 (ip), vehicle: gum acacia) was 119 % of control.

With `CC(=O)OC1CC2(C)C3(CO3)C1OC1C=C(C)C(=O)C(O)C12CO` (centres undefined) the T/C (dose: 5.0 mg/kg/injection, schedule: Q04DX002 (ip), vehicle: saline + alcohol) was 105 % of control, the T/C (dose: 10.0 mg/kg/injection, schedule: Q04DX002 (ip), vehicle: saline + alcohol) was 100 % of control and the T/C (dose: 20.0 mg/kg/injection, schedule: Q04DX002 (ip), vehicle: saline + alcohol) was 107 % of control. The T/C (dose: 40.0 mg/kg/injection, schedule: Q04DX002 (ip), vehicle: saline + alcohol) was 109 % of control.

`C/C1=C/CCCCCC1` was tested, and the T/C [1] was 104 % of control, the T/C [2] was 95 % of control and the T/C [3] was 90 % of control. The T/C [4] was 100 % of control, the T/C [5] was 113 % of control and the T/C [6] was 95 % of control.

With `C#CCOC(=O)Nc1ccccc1Cl` the T/C (dose: 50.0 mg/kg/injection, schedule: Q01DX009 (ip), vehicle: Klucel (hydroxypropylcellulose) (HPC)) was 110 % of control, the T/C (dose: 50.0 mg/kg/injection, schedule: Q04DX003 (ip), vehicle: Klucel (hydroxypropylcellulose) (HPC)) was 100 % of control and the T/C [11] was 100 % of control. The T/C [12] was 109 % of control, the T/C [13] was 100 % of control and the T/C [14] was 109 % of control.

For `C#CCCC#C`, the T/C (dose: 50.0 mg/kg/injection, schedule: Q04DX003 (ip), vehicle: saline with Tween-80) was 100 % of control, the T/C (dose: 67.0 mg/kg/injection, schedule: Q01DX005 (ip), vehicle: saline with Tween-80) was 96 % of control and the T/C (dose: 100.0 mg/kg/injection, schedule: Q01DX005 (ip), vehicle: saline with Tween-80) was 115 % of control. The T/C (dose: 100.0 mg/kg/injection, schedule: Q04DX003 (ip), vehicle: saline with Tween-80) was 104 % of control, the T/C (dose: 150.0 mg/kg/injection, schedule: Q01DX005 (ip), vehicle: saline with Tween-80) was 92 % of control and the T/C (dose: 200.0 mg/kg/injection, schedule: Q01DX009 (ip), vehicle: saline with Tween-80) was 103 % of control. For the same molecule, the T/C (dose: 200.0 mg/kg/injection, schedule: Q04DX003 (ip), vehicle: saline with Tween-80) was 108 % of control and the T/C [9] was 111 % of control.

For `CC1(C)N=C(N)N=C(N)N1c1ccc(OCCOc2ccc(NC(=O)CBr)cc2)cc1`, the T/C (dose: 2.5 mg/kg/injection, schedule: Q01DX009 (ip), vehicle: saline with Tween-80) was 95 % of control, the T/C (dose: 5.0 mg/kg/injection, schedule: Q01DX009 (ip), vehicle: saline with Tween-80) was 112 % of control and the T/C [8] was 172 % of control. The T/C [1] was 230 % of control, the T/C [15] was 165 % of control and 170 % of control and the T/C (dose: 150.0 mg/kg/injection, schedule: Q01DX009 (ip), vehicle: saline with Tween-80) was 218 % of control. For the same molecule, the T/C (dose: 150.0 mg/kg/injection, schedule: Q04DX003 (ip), vehicle: saline sonified) was 165 % of control, the T/C [3] was 90 % of control and the T/C [16] was 200 % of control. The T/C (dose: 400.0 mg/kg/injection, schedule: Q04DX003 (ip), vehicle: saline sonified) was 245 % of control.

With `O=C1CCCN1C1=CC2=C(CCc3ccccc32)S(=O)(=O)O1` the T/C [2] was 90 % of control, the T/C [4] was 100 % of control and the T/C [6] was 100 % of control.

For `O=C(Nc1ccc([N+](=O)[O-])cc1)Nc1ccc([N+](=O)[O-])cc1`, the T/C (dose: 50.0 mg/kg/injection, schedule: Q04DX003 (ip), vehicle: saline sonified) was 86 % of control, the T/C [15] was 86 % of control and the T/C [16] was 90 % of control.
